Assay results reported in patent publication US20260191841A1, “TREATMENT OF CHRONIC KIDNEY DISEASE IN TYPE I DIABETES MELLITUS” (BAYER AKTIENGESELLSCHAFT, priority 2022, published 2026).

How the values were obtained:
[1] = patients with CKD and T1D; vs placebo; cited from earlier work
[2] = patients with T2D; coadministered with an ACEI or an ARB; cited from earlier work
[3] = FIDELITY UACR mixed model, restricted to patients with UACR>=200 mg/g and eGFR between 25 and 90 ml/min/1.73 m^2; type: in vivo, human; settings: FIDELITY restricted population
Protocol: UACR will be analyzed assuming a lognormal distribution. Assumptions for the UACR ratios to baseline at 6 months are based on the FIDELITY UACR mixed model restricted to patients with UACR>=200 mg/g and eGFR between 25 and 90 ml/min/1.73 m^2.
In the FIDELITY restricted population, the UACR ratio to baseline after 4 months was 0.61 and 0.53 after 12 months in the finerenone group. The value, using interpolation, at 6 months was estimated to be 0.59. As a conservative approach, we will assume the treatment ratio (finerenone/placebo) over 6 months to be 0.7 (i.e., the difference in UACR ratio to baseline between finerenone and placebo to be 30%). The standard deviation was calculated to range from 0.75 and 1.0 between month 4 and 12. Using linear interpolation, at month 6 it was assumed to be approximately 0.8.

SMILES | albuminuria [1] | rate of kidney function decline [1] | cardiovascular morbidity [2] | progression of diabetic kidney disease [2] | UACR ratio to baseline ([3]; after 4 months, finerenone group) | UACR ratio to baseline ([3]; after 12 months, finerenone group) | UACR ratio to baseline ([3]; at 6 months, estimated using interpolation)
Oc1ncnc2[nH]ncc12 [allopurinol] | did not reduce albuminuria | nor delay the rate of kidney function decline |  |  |  |  | 
CCOc1ncc(C)c2c1[C@H](c1ccc(C#N)cc1OC)C(C(N)=O)=C(C)N2 [finerenone, (4S)-4-(4-cyano-2-methoxyphenyl)-5-ethoxy-2,8-dimethyl-1,4-dihydro-1,6-naphthyridine-3-carboxamide] |  |  | reduces cardiovascular morbidity | delays the progression of diabetic kidney disease | 0.61 | 0.53 | 0.59
